In brackets after ≈: the same amount, converted by molar mass.
Experiments:
Streptococcus pyogenes = test: Antibacterial activity against erythromycin-resistant Streptococcus pyogenes ATCC 19615 assessed as inhibition of visible bacterial growth incubated for 18 hrs by broth microdilution method; type: functional
Streptococcus agalactiae [1] = test: Antibacterial activity against erythromycin-resistant Streptococcus agalactiae 19-9 assessed as inhibition of visible bacterial growth incubated for 18 hrs by broth microdilution method; type: functional
Streptococcus pneumoniae [2] = test: Antibacterial activity against erythromycin-resistant Streptococcus pneumoniae SPN19-14 assessed as inhibition of visible bacterial growth incubated for 18 hrs by broth microdilution method; type: functional
Streptococcus pneumoniae [3] = test: Antibacterial activity against erythromycin-resistant Streptococcus pneumoniae SPN19-13 assessed as inhibition of visible bacterial growth incubated for 18 hrs by broth microdilution method; type: functional
Streptococcus pneumoniae [4] = test: Antibacterial activity against erythromycin-resistant Streptococcus pneumoniae SPN19-8 assessed as inhibition of visible bacterial growth incubated for 18 hrs by broth microdilution method; type: functional
[5] = test system: Staphylococcus epidermidis; test: Antibacterial activity against erythromycin-resistant Staphylococcus epidermidis 19-11 assessed as inhibition of visible bacterial growth incubated for 18 hrs by broth microdilution method; type: functional
[6] = test system: Staphylococcus epidermidis; test: Antibacterial activity against erythromycin-resistant Staphylococcus epidermidis 19-9 assessed as inhibition of visible bacterial growth incubated for 18 hrs by broth microdilution method; type: functional
[7] = test system: Staphylococcus epidermidis; test: Antibacterial activity against erythromycin-resistant Staphylococcus epidermidis 19-8 assessed as inhibition of visible bacterial growth incubated for 18 hrs by broth microdilution method; type: functional
[8] = test system: Staphylococcus epidermidis; test: Antibacterial activity against erythromycin-resistant Staphylococcus epidermidis 19-6 assessed as inhibition of visible bacterial growth incubated for 18 hrs by broth microdilution method; type: functional
[9] = test system: Staphylococcus epidermidis; test: Antibacterial activity against erythromycin-resistant Staphylococcus epidermidis 19-4 assessed as inhibition of visible bacterial growth incubated for 18 hrs by broth microdilution method; type: functional
[10] = test system: Staphylococcus epidermidis; test: Antibacterial activity against erythromycin-resistant Staphylococcus epidermidis 19-5 assessed as inhibition of visible bacterial growth incubated for 18 hrs by broth microdilution method; type: functional
Moraxella catarrhalis [11] = test: Antibacterial activity against Moraxella catarrhalis BCA 19-5 assessed as inhibition of bacterial growth incubated for 24 hrs by CLSI based broth microdilution method; type: functional; settings: Moraxella catarrhalis, BCA 19-5, 24 h, read-out: MIC
Moraxella catarrhalis [12] = test: Antibacterial activity against Moraxella catarrhalis BCA 19-6 assessed as inhibition of bacterial growth incubated for 24 hrs by CLSI based broth microdilution method; type: functional; settings: Moraxella catarrhalis, BCA 19-6, 24 h, read-out: MIC
Moraxella catarrhalis [13] = test: Antibacterial activity against Moraxella catarrhalis BCA 19-31 assessed as inhibition of bacterial growth incubated for 24 hrs by CLSI based broth microdilution method; type: functional; settings: BCA 19-31, 24 h
Haemophilus influenzae [14] = test: Antibacterial activity against Haemophilus influenzae HIN 19-15 assessed as inhibition of bacterial growth incubated for 20 to 24 hrs by CLSI based broth microdilution method; type: functional; settings: time 20-24 hrs
Haemophilus influenzae [15] = test: Antibacterial activity against Haemophilus influenzae HIN 19-18 assessed as inhibition of bacterial growth incubated for 20 to 24 hrs by CLSI based broth microdilution method; type: functional; settings: HIN 19-18, time 20-24 hrs
Haemophilus influenzae [16] = test: Antibacterial activity against Haemophilus influenzae HIN 20-18 assessed as inhibition of bacterial growth incubated for 20 to 24 hrs by CLSI based broth microdilution method; type: functional; settings: time 20-24 hrs
[17] = Cytotoxicity against mouse AML12 cells assessed as reduction in cell viability incubated for 48 hrs by MTT assay; type: toxicity, cell-based
Streptococcus agalactiae [18] = test: Antibacterial activity against erythromycin-resistant Streptococcus agalactiae 19-8 assessed as inhibition of visible bacterial growth incubated for 18 hrs by broth microdilution method; type: functional

SMILES | MIC (Streptococcus pyogenes) [µg/mL] | MIC (Streptococcus agalactiae [1]) [µg/mL] | MIC (Streptococcus pneumoniae [2]) [µg/mL] | MIC (Streptococcus pneumoniae [3]) [µg/mL] | MIC (Streptococcus pneumoniae [4]) [µg/mL] | MIC [5] [µg/mL] | MIC [6] [µg/mL] | MIC [7] [µg/mL] | MIC [8] [µg/mL] | MIC [9] [µg/mL] | MIC [10] [µg/mL] | MIC (Moraxella catarrhalis [11]) [µg/mL] | MIC (Moraxella catarrhalis [12]) [µg/mL] | MIC (Moraxella catarrhalis [13]) [µg/mL] | MIC (Haemophilus influenzae [14]) [µg/mL] | MIC (Haemophilus influenzae [15]) [µg/mL] | MIC (Haemophilus influenzae [16]) [µg/mL] | CC50 at 48 h [17] [µM] | MIC (Streptococcus agalactiae [18]) [µg/mL]
CC[C@H]1OC(=O)[C@@](C)(F)C(=O)[C@H](C)[C@@H](O[C@@H]2O[C@H](C)C[C@H](N(C)C)[C@H]2O)[C@](C)(OC)C[C@@H](C)C(=O)[C@H](C)[C@H]2N(CCCOC(=O)Nc3c(F)cccc3F)C(=O)O[C@]12C | < 0.03 | 1 (≈ 1.18 µM) | 0.125 (≈ 0.148 µM) | 0.125 (≈ 0.148 µM) | 0.125 (≈ 0.148 µM) | < 0.03 | 0.25 (≈ 0.296 µM) | 0.125 (≈ 0.148 µM) | 0.125 (≈ 0.148 µM) | 0.03 (≈ 0.0355 µM) | < 0.03 | 0.122 (≈ 0.145 µM) | 0.125 (≈ 0.148 µM) | 0.125 (≈ 0.148 µM) | 4 (≈ 4.74 µM) | 4 (≈ 4.74 µM) | 16 (≈ 19 µM) | > 100 | –
CCOc1ccc(NC(=O)OCCCN2C(=O)O[C@]3(C)[C@@H](CC)OC(=O)[C@@](C)(F)C(=O)[C@H](C)[C@@H](O[C@@H]4O[C@H](C)C[C@H](N(C)C)[C@H]4O)[C@](C)(OC)C[C@@H](C)C(=O)[C@H](C)[C@@H]23)cc1 | < 0.03 | 2 (≈ 2.35 µM) | 0.5 (≈ 0.587 µM) | 0.5 (≈ 0.587 µM) | 0.25 (≈ 0.293 µM) | 0.125 (≈ 0.147 µM) | 0.5 (≈ 0.587 µM) | 0.25 (≈ 0.293 µM) | 0.25 (≈ 0.293 µM) | 0.5 (≈ 0.587 µM) | 0.06 (≈ 0.0704 µM) | 0.5 (≈ 0.587 µM) | 1 (≈ 1.17 µM) | 0.5 (≈ 0.587 µM) | > 16 | 16 (≈ 18.8 µM) | > 16 | 36.5 | –
CC[C@H]1OC(=O)[C@H](C)[C@@H](O[C@H]2C[C@@](C)(OC)[C@@H](O)[C@H](C)O2)[C@H](C)[C@@H](O[C@@H]2O[C@H](C)C[C@H](N(C)C)[C@H]2O)[C@](C)(OC)C[C@@H](C)C(=O)[C@H](C)[C@@H](O)[C@]1(C)O [CLARITHROMYCIN] | < 0.03 | 64 (≈ 85.6 µM) | 0.5 (≈ 0.668 µM) | 64 (≈ 85.6 µM) | > 64 | 16 (≈ 21.4 µM) | 16 (≈ 21.4 µM) | > 64 | 64 (≈ 85.6 µM) | > 64 | 0.25 (≈ 0.334 µM) | > 64 | 32 (≈ 42.8 µM) | 0.125 (≈ 0.167 µM) | 4 (≈ 5.35 µM) | 8 (≈ 10.7 µM) | > 16 | > 100 | 0.06 (≈ 0.0802 µM)
CC[C@H]1OC(=O)[C@@](C)(F)C(=O)[C@H](C)[C@@H](O[C@@H]2O[C@H](C)C[C@H](N(C)C)[C@H]2O)[C@](C)(OC)C[C@@H](C)C(=O)[C@H](C)[C@H]2N(CCCOC(=O)Nc3ccccc3Cl)C(=O)O[C@]12C | < 0.03 | 1 (≈ 1.19 µM) | 0.25 (≈ 0.297 µM) | 0.25 (≈ 0.297 µM) | 0.25 (≈ 0.297 µM) | < 0.06 | 0.25 (≈ 0.297 µM) | 0.125 (≈ 0.148 µM) | 0.125 (≈ 0.148 µM) | 0.06 (≈ 0.0712 µM) | < 0.03 | 0.25 (≈ 0.297 µM) | 0.5 (≈ 0.594 µM) | 1.12 (≈ 1.34 µM) | 8 (≈ 9.5 µM) | 8 (≈ 9.5 µM) | 16 (≈ 19 µM) | 36.2 | –
CC[C@H]1OC(=O)[C@H](C)[C@@H](O[C@H]2C[C@@](C)(OC)[C@@H](O)[C@H](C)O2)[C@H](C)[C@@H](O[C@@H]2O[C@H](C)C[C@H](N(C)C)[C@H]2O)[C@](C)(O)C[C@@H](C)C(=O)[C@H](C)[C@@H](O)[C@]1(C)O [ERYTHROMYCIN] | < 0.03 | 16 (≈ 21.8 µM) | 0.5 (≈ 0.681 µM) | > 64 | > 64 | 64 (≈ 87.2 µM) | > 64 | > 64 | 32 (≈ 43.6 µM) | > 64 | 0.25 (≈ 0.341 µM) | > 64 | 64 (≈ 87.2 µM) | 0.5 (≈ 0.681 µM) | 8 (≈ 10.9 µM) | 8 (≈ 10.9 µM) | > 16 | > 100 | 0.125 (≈ 0.17 µM)

Reference: ChEMBL document CHEMBL5543097, “Synthesis and structure-activity relationships of novel 14-membered 2-fluoro ketolides with structural modification at the C11 position” (Eur J Med Chem, 2024)
